{
  "source": "paper PMC9127750",
  "about": "“Structure-based design of CDC42 effector interaction inhibitors for the treatment of cancer” (Cell reports, 2022)",
  "system": "WM3248 melanoma cells, 486 antibodies",
  "experiment": "Reverse phase protein arrays (RPPA);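 on CA9.R.C RPPA level: ratio of treated to vehicle (0 µM) normalized linear protein signal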;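 on CD171.M.V RPPA level: ratio of treated to vehicle (0 µM) normalized linear protein signal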;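 on CREB pS133.R.C RPPA level: ratio of treated to vehicle (0 µM) normalized linear protein signal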;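 on Cyclin.B1.R.V RPPA level: ratio of treated to vehicle (0 µM) normalized linear protein signal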",
  "format": "cell-based, Human",
  "details": "20 uM",
  "text": "Pellets were snap frozen in liquid nitrogen and shipped to MD Anderson Cancer Center core RPPA facility for RPPA analysis (Table S5). Three biological replicates for each sample were generated.\nNomenclatures on the RPPA heatmaps: name_of_antibody.species_of_antibody.status_of_antibody. V - antibody validated; C - validation of antibody in progress; Q - antibody nonspecific; E – under evaluation; antibodies raised in M - mouse, G - goat, R - rabbit, or T - rat.",
  "note": "Values joined by “and” are separate entries in the source; they are usually repeats but may differ in a detail not shown here. Equal values may be shown once.",
  "data": [
    {"compound": "CN(C)c1cccc(Nc2cc(-c3ccccc3)nc(C3CCNCC3)n2)c1", "note": "[ARN22089, N1,N1-dimethyl-N3-(6-phenyl-2-(piperidin-4-yl)pyrimidin-4-yl)benzene-1,3-diamine]", "values": [
      {"measurement": "RPPA signal, antibody UQCRC2.M.C", "setting": "individual replicates", "result": "0.993 and 0.916 and 0.753"},
      {"measurement": "RPPA signal, antibody UVRAG.R.C", "setting": "individual replicates", "result": "0.916 and 1.111 and 1.110"},
      {"measurement": "RPPA signal, antibody VASP.R.V", "setting": "individual replicates", "result": "1.010 and 0.872 and 0.975"},
      {"measurement": "RPPA signal, antibody VAV1.R.C", "setting": "individual replicates", "result": "0.958 and 1.058 and 1.057"},
      {"measurement": "RPPA signal, antibody VEGFR.2.R.V", "setting": "individual replicates", "result": "0.883 and 0.823 and 1.079"},
      {"measurement": "RPPA signal, antibody VEGFR.2_pY1175.R.C", "setting": "individual replicates", "result": "1.118 and 0.976"},
      {"measurement": "RPPA signal, antibody VHL.EPPK1.M.C", "setting": "individual replicates", "result": "1.005 and 1.203 and 0.853"},
      {"measurement": "RPPA signal, antibody VHL.R.C", "setting": "individual replicates", "result": "0.953 and 0.849"},
      {"measurement": "RPPA signal, antibody Vinculin.M.V", "setting": "individual replicates", "result": "0.888 and 0.854 and 0.998"},
      {"measurement": "RPPA signal, antibody WIPI1.R.C", "setting": "individual replicates", "result": "1.160 and 1.238 and 1.145"},
      {"measurement": "RPPA signal, antibody WIPI2.R.C", "setting": "individual replicates", "result": "1.015 and 1.158 and 1.252"},
      {"measurement": "RPPA signal, antibody WTAP.R.V", "setting": "individual replicates", "result": "1.419 and 1.174 and 0.998"},
      {"measurement": "RPPA signal, antibody Wee1.R.C", "setting": "individual replicates", "result": "0.776 and 1.131 and 1.126"},
      {"measurement": "RPPA signal, antibody Wee1_pS642.R.C", "setting": "individual replicates", "result": "0.845 and 1.173 and 1.116"},
      {"measurement": "RPPA signal, antibody XBP.1.G.C", "setting": "individual replicates", "result": "0.989 and 0.988"},
      {"measurement": "RPPA signal, antibody XIAP.R.C", "setting": "individual replicates", "result": "0.944 and 0.910 and 1.125"},
      {"measurement": "RPPA signal, antibody XPA.M.V", "setting": "individual replicates", "result": "0.967 and 1.026"},
      {"measurement": "RPPA signal, antibody XPF.R.C", "setting": "individual replicates", "result": "0.937 and 0.898 and 1.023"},
      {"measurement": "RPPA signal, antibody XRCC1.R.C", "setting": "individual replicates", "result": "1.008 and 1.026"},
      {"measurement": "RPPA signal, antibody YAP.R.C", "setting": "individual replicates", "result": "1.004 and 1.030 and 0.945"},
      {"measurement": "RPPA signal, antibody YAP_pS127.R.V", "setting": "individual replicates", "result": "1.152 and 0.978 and 0.976"},
      {"measurement": "RPPA signal, antibody YB1_pS102.R.V", "setting": "individual replicates", "result": "1.029 and 0.913 and 1.102"},
      {"measurement": "RPPA signal, antibody YES1.R.V", "setting": "individual replicates", "result": "1.048 and 0.896 and 0.978"},
      {"measurement": "RPPA signal, antibody YTHDF2.R.V", "setting": "individual replicates", "result": "1.166 and 0.983 and 0.917"},
      {"measurement": "RPPA signal, antibody YTHDF3.R.C", "setting": "individual replicates", "result": "0.960 and 0.870"},
      {"measurement": "RPPA signal, antibody ZAP.70.R.V", "setting": "individual replicates", "result": "0.979 and 0.883 and 0.925"},
      {"measurement": "RPPA signal, antibody ZEB1.R.V", "setting": "individual replicates", "result": "1.076 and 1.001 (2×)"},
      {"measurement": "C.Raf.R.C RPPA level", "setting": "replicates", "result": "0.876 and 1.165 and 1.143"},
      {"measurement": "C.Raf_pS338.R.V RPPA level", "setting": "replicates", "result": "0.991 and 1.112 and 1.160"},
      {"measurement": "CA9.R.C RPPA level", "setting": "replicates", "result": "0.919 and 0.861 and 0.996"},
      {"measurement": "CD2.M.C RPPA level", "setting": "replicates", "result": "0.941 and 0.909 and 0.958"},
      {"measurement": "CD4.R.V RPPA level", "setting": "replicates", "result": "0.942 and 0.993 and 1.083"},
      {"measurement": "CD5.M.C RPPA level", "setting": "replicates", "result": "0.997 and 0.956 and 0.945"},
      {"measurement": "CD20.R.C RPPA level", "setting": "replicates", "result": "1.250 and 0.955"},
      {"measurement": "CD26.R.V RPPA level", "setting": "replicates", "result": "1.005 and 0.958 and 1.161"},
      {"measurement": "CD29.M.V RPPA level", "setting": "replicates", "result": "0.953 and 0.914 and 0.985"},
      {"measurement": "CD31.M.V RPPA level", "setting": "replicates", "result": "0.978 and 0.997 and 0.990"},
      {"measurement": "CD38.R.C RPPA level", "setting": "replicates", "result": "0.979 and 1.221 and 1.194"},
      {"measurement": "CD44.R.C RPPA level", "setting": "replicates", "result": "1.115 and 0.966"},
      {"measurement": "CD45.M.V RPPA level", "setting": "replicates", "result": "0.921 and 0.967 and 0.985"},
      {"measurement": "CD49b.M.V RPPA level", "setting": "replicates", "result": "0.971 and 0.954"},
      {"measurement": "CD68.M.C RPPA level", "setting": "replicates", "result": "1.009 and 1.025 and 0.962"},
      {"measurement": "CD74.M.V RPPA level", "setting": "replicates", "result": "1.011 and 1.026 and 0.956"},
      {"measurement": "CD134.R.V RPPA level", "setting": "replicates", "result": "0.989 and 0.997 and 0.996"},
      {"measurement": "CD171.M.V RPPA level", "setting": "replicates", "result": "0.680 and 0.817 and 0.790"},
      {"measurement": "CDK1_pT14.R.C RPPA level", "setting": "replicates", "result": "1.334 and 0.655"},
      {"measurement": "CDK9.R.V RPPA level", "setting": "replicates", "result": "1.161 and 0.839 and 0.893"},
      {"measurement": "CDKN2A.R.C RPPA level", "setting": "replicates", "result": "0.966 and 1.130 and 0.976"},
      {"measurement": "CDT1.R.V RPPA level", "setting": "replicates", "result": "0.905 and 0.934"},
      {"measurement": "CENP.A.R.V RPPA level", "setting": "replicates", "result": "2.651 and 0.953"},
      {"measurement": "CHD1L.R.V RPPA level", "setting": "replicates", "result": "0.935 and 0.987 and 0.941"},
      {"measurement": "CIITA.R.C RPPA level", "setting": "replicates", "result": "1.013 and 1.020 and 0.972"},
      {"measurement": "COG3.R.V RPPA level", "setting": "replicates", "result": "0.941 and 1.097 and 1.256"},
      {"measurement": "CRABP1.R.C RPPA level", "setting": "replicates", "result": "1.019 and 1.064 and 0.991"},
      {"measurement": "CRABP2.R.V RPPA level", "setting": "replicates", "result": "0.965 and 1.085 and 0.882"},
      {"measurement": "CREB_pS133.R.C RPPA level", "setting": "replicates", "result": "0.965 and 1.585 and 1.260"},
      {"measurement": "CSK.R.C RPPA level", "setting": "replicates", "result": "0.871 and 1.022"},
      {"measurement": "Calnexin.R.V RPPA level", "setting": "replicates", "result": "0.849 and 0.983"},
      {"measurement": "Caspase.3.cleaved.R.C RPPA level", "setting": "replicates", "result": "0.952 and 1.128 and 1.028"},
      {"measurement": "Caspase.7.cleaved..R.C RPPA level", "setting": "replicates", "result": "1.007 and 0.873 and 1.064"},
      {"measurement": "Caspase.8.M.Q RPPA level", "setting": "replicates", "result": "1.015 and 0.943 and 0.830"},
      {"measurement": "Caspase.8.cleaved.R.C RPPA level", "setting": "replicates", "result": 0.945},
      {"measurement": "Caveolin.1.R.V RPPA level", "setting": "replicates", "result": "0.593 and 0.774 and 1.160"},
      {"measurement": "Cdc6.R.V RPPA level", "setting": "replicates", "result": "1.141 and 0.773 and 0.673"},
      {"measurement": "Cdc42.R.C RPPA level", "setting": "replicates", "result": "0.928 and 1.027 and 1.096"},
      {"measurement": "Chk1.M.C RPPA level", "setting": "replicates", "result": "0.847 and 0.982"},
      {"measurement": "Chk1_pS296.R.V RPPA level", "setting": "replicates", "result": "0.942 and 1.163 and 1.155"},
      {"measurement": "Chk1_pS345.R.C RPPA level", "setting": "replicates", "result": "1.030 and 1.165 and 1.125"},
      {"measurement": "Chk2.M.V RPPA level", "setting": "replicates", "result": "0.868 and 0.876 and 0.992"},
      {"measurement": "Chk2_pT68.R.C RPPA level", "setting": "replicates", "result": "0.919 and 1.631 and 1.172"},
      {"measurement": "Claudin.7.R.V RPPA level", "setting": "replicates", "result": "0.970 and 1.594 and 0.965"},
      {"measurement": "Collagen.VI.R.V RPPA level", "setting": "replicates", "result": "1.150 and 0.775 and 0.928"},
      {"measurement": "Complex.II.Subunit.M.V RPPA level", "setting": "replicates", "result": "0.977 and 0.871 and 0.988"},
      {"measurement": "Connexin.43.R.C RPPA level", "setting": "replicates", "result": "0.961 and 1.203 and 1.101"},
      {"measurement": "Coup.TFII.R.C RPPA level", "setting": "replicates", "result": "0.854 and 0.942 and 1.027"},
      {"measurement": "Cox2.R.C RPPA level", "setting": "replicates", "result": "1.254 and 0.972 and 1.574"},
      {"measurement": "Cox.IV.R.V RPPA level", "setting": "replicates", "result": "1.125 and 0.898 and 0.967"},
      {"measurement": "Creb.R.C RPPA level", "setting": "replicates", "result": "1.005 and 1.024 and 1.173"},
      {"measurement": "CtIP.R.V RPPA level", "setting": "replicates", "result": "0.804 and 0.988 and 1.058"},
      {"measurement": "Cyclin.B1.R.V RPPA level", "setting": "replicates", "result": "1.623 and 0.503 and 1.275"},
      {"measurement": "Cyclin.D1.R.C RPPA level", "setting": "replicates", "result": "1.131 and 1.034 and 0.955"}
    ]}
  ]
}
